# In patent US8895695B2, “Template-fixed beta-hairpin peptidomimetics with CXCR4 antagonizing activity” (priority 2003, dated 2014):
# Read-outs that look alike come from different tables or passages of the source. Bridge positions count the residues as written; N and C are the ends. Square brackets hold non-standard residues; d marks the D form. Peptide text beside a SMILES is read from it. N(3-imidazol-1-ylpropyl)Gly = O=C(O)CNCCCn1ccnc1; Phe(4-F) = N[C@@H](Cc1ccc(F)cc1)C(=O)O; 2Nal = N[C@@H](Cc1ccc2ccccc2c1)C(=O)O; Cit = NC(=O)NCCC[C@H](N)C(=O)O; Dab = NCC[C@H](N)C(=O)O
# Columns and labels:
# [1] = target: CXCR4 (Homo sapiens, UniProt P61073); assay: Ca2+-assay method 2 (Flexstation, SDF-1 induced calcium mobilization); format: cell-based; parameters: expressed in transfected cells; host or cells: mouse pre-B cell line 300-19; conditions: method 2 (Ex. 54-160), mouse pre-B cell line 300-19 with human CXCR4, 10 nM SDF-1
# Experimental: 2.2. Ca^2+-Assay: CXCR4-Antagonizing Activity of the Peptides.
# The cells were batch loaded with the Calcium 3 Assay kit (Molecular Devices) in assay buffer (Hanks Balanced salt solution, HBSS, 20 mM HEPES, pH 7.4, 0.1% BSA) for 1 h at room temperature and then 200,000 labeled cells were dispensed into black 96 well assays plates (Costar No. 3603). A 20-fold concentrated solution of peptide in assay buffer was added to the cells and the whole plate was centrifuged to settle the cells to the bottom of the wells. Calcium mobilization induced by 10 nM stromal-derived factor-1 (SDF-1) was measured in the Flexstation 384 (excitation, 485 nM; emission, 525 nM) for 90 seconds. A maximal change in fluorescence response above baseline was used to calculate antagonist activity. The data for dose response curves (antagonist concentration versus % maximum response) were fitted to a four parameter logistic equation using SoftmaxPro 4.6 (Molecular Devices), from which IC50% values were calculated.
# [2] = tested on: human red blood cells (hRBC); assay: Hemolysis; format: cell-based
# Experimental: The peptides were tested for their hemolytic activity against human red blood cells (hRBC). Fresh hRBC were washed three times with phosphate buffered saline (PBS) by centrifugation for 10 min at 2000×g. Peptides at a concentration of 100 μM were incubated with 20% v/v hRBC for 1 hour at 37° C. The final erythrocyte concentration was approximately 0.9×10^9 cells per ml. A value of 0% resp. 100% cell lysis was determined by incubation of the hRBC in the presence of PBS alone and respectively 0.1% Triton X-100 in H2O. The samples were centrifuged and the supernatant was 20-fold diluted in PBS buffer and the optical density (OD) of the sample at […] was measured. The 100% lyses value (OD540H2O) gave an OD540 of approximately 1.3-1.8. Percent hemolysis was calculated as follows: (OD540peptide/OD540H2O)×100%.
# [3] = in vitro; conditions: human
# [4] = read-out: IC50 (nM) Ca^2+ assay
# 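Throughout, for GI50: MTT reduction read as absorbance at 595 nm, blank-corrected and expressed as percent growth relative to the time-zero cell reading, triplicate wells per concentration.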
# CXCR4, sequence (P61073 whole entry): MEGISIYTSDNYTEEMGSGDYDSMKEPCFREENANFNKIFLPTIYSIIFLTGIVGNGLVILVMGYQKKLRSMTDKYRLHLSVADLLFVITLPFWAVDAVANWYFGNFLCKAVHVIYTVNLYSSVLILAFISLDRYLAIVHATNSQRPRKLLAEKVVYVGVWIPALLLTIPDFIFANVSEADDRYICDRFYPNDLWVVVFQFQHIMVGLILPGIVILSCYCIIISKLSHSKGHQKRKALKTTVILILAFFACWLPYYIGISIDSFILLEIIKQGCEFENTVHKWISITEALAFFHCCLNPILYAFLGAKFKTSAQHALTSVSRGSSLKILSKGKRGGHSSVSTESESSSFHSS
Compound,IC50 ([1]; IC50 (nM) Ca^2+ assay) [nM],"Hemolysis at 100 μM ([2]; percent hemolysis, 100 μM peptide, 20% v/v hRBC, 1 hour at 37° C.) [%]",GI50 at 48 h [3] [nM],"IC50 [1, 4] [nM]",Hemolysis at 100 μM [2] [%]
N=C(N)NCCC[C@@H]1NC(=O)[C@@H]2CSSC[C@H](NC(=O)[C@H](Cc3ccc(O)cc3)NC(=O)[C@H](CCCNC(=N)N)NC(=O)[C@H](CCCNC(=N)N)NC(=O)[C@H]3CCCN3C(=O)CNC1=O)C(=O)N[C@@H](Cc1ccc(O)cc1)C(=O)N[C@@H](CCC(N)=O)C(=O)N[C@@H](CCCCN)C(=O)N[C@H](CCC(N)=O)C(=O)N1CCC[C@H]1C(=O)N[C@@H](Cc1ccc(O)cc1)C(=O)N[C@@H](CCCNC(=N)N)C(=O)N[C@@H](CCCNC(N)=O)C(=O)N2 [Ex. 149] (cyclo(YR[Cit]CRG[dP]RRYCYQK[dQ]P); disulfide 4-11),1,0,> 100000,–,–
CC[C@H](C)[C@@H]1NC(=O)[C@@H]2CCCN2C(=O)[C@H]2CCCN2C(=O)[C@H](CCCCN)NC(=O)[C@H](CCC(N)=O)NC(=O)[C@H](Cc2ccc(O)cc2)NC(=O)[C@@H]2CSSC[C@H](NC(=O)[C@H](CCCNC(N)=O)NC(=O)[C@H](CCCNC(=N)N)NC1=O)C(=O)N[C@@H](CCCNC(=N)N)C(=O)NCC(=O)N1CCC[C@@H]1C(=O)N[C@@H](CCCNC(=N)N)C(=O)N[C@@H](CCCNC(=N)N)C(=O)N[C@@H](Cc1ccc3ccccc3c1)C(=O)N2 [Ex. 65] (cyclo(IR[Cit]CRG[dP]RR[2Nal]CYQK[dP]P); disulfide 4-11),–,–,65000,3.9,0.2
N=C(N)NCCC[C@@H]1NC(=O)CN(CCCn2ccnc2)C(=O)[C@H]2CCCN2C(=O)CNC(=O)[C@H](CCCNC(=N)N)NC(=O)[C@@H]2CSSC[C@H](NC(=O)[C@H](Cc3ccc4ccccc4c3)NC1=O)C(=O)N[C@@H](Cc1ccc(O)cc1)C(=O)N[C@@H](CCCNC(N)=O)C(=O)N[C@@H](CCCCN)C(=O)N1CCC[C@@H]1C(=O)N1CCC[C@H]1C(=O)N[C@@H](Cc1ccc(O)cc1)C(=O)N[C@@H](CCCNC(=N)N)C(=O)N[C@@H](CCCNC(N)=O)C(=O)N2 [Ex. 125] (cyclo(YR[Cit]CRG[dP][N(3-imidazol-1-ylpropyl)Gly]R[2Nal]CY[Cit]K[dP]P); disulfide 4-11),–,–,> 100000,330,0
N=C(N)NCCC[C@@H]1NC(=O)[C@@H]2CSSC[C@H](NC(=O)[C@H](Cc3c[nH]c4ccccc34)NC(=O)[C@H](CCCNC(=N)N)NC(=O)[C@H](CCCNC(=N)N)NC(=O)[C@H]3CCCN3C(=O)CNC1=O)C(=O)N[C@@H](Cc1ccc(O)cc1)C(=O)N[C@@H](CCCNC(N)=O)C(=O)N[C@@H](CCCCN)C(=O)N1CCC[C@@H]1C(=O)N1CCC[C@H]1C(=O)N[C@@H](Cc1ccc(O)cc1)C(=O)N[C@@H](Cc1c[nH]cn1)C(=O)N[C@@H](CCCNC(N)=O)C(=O)N2 [Ex. 105] (cyclo(YH[Cit]CRG[dP]RRWCY[Cit]K[dP]P); disulfide 4-11),–,–,49000,0.62,0
C[C@@H]1NC(=O)[C@H](CCC(N)=O)NC(=O)[C@H](Cc2ccc(O)cc2)NC(=O)[C@@H]2CSSC[C@H](NC(=O)[C@H](CCCNC(N)=O)NC(=O)[C@H](CCCNC(=N)N)NC(=O)[C@H](Cc3ccc(O)cc3)NC(=O)[C@@H]3CCCN3C(=O)[C@H]3CCCN3C1=O)C(=O)N[C@@H](CCCNC(=N)N)C(=O)NCC(=O)N1CCC[C@@H]1C(=O)N[C@@H](CCCNC(=N)N)C(=O)N[C@@H](CCCNC(=N)N)C(=O)N[C@@H](Cc1ccc3ccccc3c1)C(=O)N2 [Ex. 86] (cyclo(YR[Cit]CRG[dP]RR[2Nal]CYQA[dP]P); disulfide 4-11),–,–,62000,0.69,0
C[C@@H]1NC(=O)[C@H](CCCNC(=N)N)NC(=O)[C@@H]2CSSC[C@H](NC(=O)[C@H](Cc3c[nH]c4ccccc34)NC(=O)[C@H](CCCNC(=N)N)NC(=O)[C@H](CCCNC(=N)N)NC(=O)[C@H]3CCCN3C1=O)C(=O)N[C@@H](Cc1ccc(O)cc1)C(=O)N[C@@H](CCCNC(N)=O)C(=O)N[C@@H](CCCCN)C(=O)N1CCC[C@@H]1C(=O)N1CCC[C@H]1C(=O)N[C@@H](Cc1ccc(O)cc1)C(=O)N[C@@H](CCCNC(=N)N)C(=O)N[C@@H](CCCNC(N)=O)C(=O)N2 [Ex. 143] (cyclo(YR[Cit]CRA[dP]RRWCY[Cit]K[dP]P); disulfide 4-11),–,–,46000,0.9,–
N=C(N)NCCC[C@@H]1NC(=O)[C@@H]2CSSC[C@H](NC(=O)[C@H](Cc3c[nH]c4ccccc34)NC(=O)[C@H](CCCNC(=N)N)NC(=O)[C@H](CCN)NC(=O)[C@H]3CCCN3C(=O)CNC1=O)C(=O)N[C@@H](Cc1ccc(O)cc1)C(=O)N[C@@H](CCC(N)=O)C(=O)N[C@@H](CCCCN)C(=O)N1CCC[C@@H]1C(=O)N1CCC[C@H]1C(=O)N[C@@H](Cc1ccc(O)cc1)C(=O)N[C@@H](CCCNC(=N)N)C(=O)N[C@@H](CCCNC(N)=O)C(=O)N2 [Ex. 109] (cyclo(YR[Cit]CRG[dP][Dab]RWCYQK[dP]P); disulfide 4-11),–,–,65000,3,0
C[C@@H](O)[C@@H]1NC(=O)[C@H](CCCNC(=N)N)NC(=O)[C@H](Cc2ccc(O)cc2)NC(=O)[C@@H]2CCCN2C(=O)[C@H]2CCCN2C(=O)[C@H](CCCCN)NC(=O)[C@H](CCC(N)=O)NC(=O)[C@H](Cc2ccc(O)cc2)NC(=O)[C@@H]2CSSC[C@H](NC1=O)C(=O)N[C@@H](CCCNC(=N)N)C(=O)NCC(=O)N1CCC[C@@H]1C(=O)N[C@@H](CCN)C(=O)N[C@@H](CCCNC(=N)N)C(=O)N[C@@H](Cc1ccc3ccccc3c1)C(=O)N2 [Ex. 104] (cyclo(YRTCRG[dP][Dab]R[2Nal]CYQK[dP]P); disulfide 4-11),–,–,71000,7.4,0
N=C(N)NCCC[C@@H]1NC(=O)[C@@H]2CSSC[C@H](NC(=O)[C@H](Cc3ccc4ccccc4c3)NC(=O)[C@H](CCCNC(=N)N)NC(=O)[C@H](Cc3ccc(F)cc3)NC(=O)[C@H]3CCCN3C(=O)CNC1=O)C(=O)N[C@@H](Cc1ccc(O)cc1)C(=O)N[C@@H](CCC(N)=O)C(=O)N[C@@H](CCCCN)C(=O)N1CCC[C@@H]1C(=O)N1CCC[C@H]1C(=O)N[C@@H](Cc1ccc(O)cc1)C(=O)N[C@@H](CCCNC(=N)N)C(=O)N[C@@H](CCCNC(N)=O)C(=O)N2 [Ex. 76] (cyclo(YR[Cit]CRG[dP][Phe(4-F)]R[2Nal]CYQK[dP]P); disulfide 4-11),–,–,> 100000,5.6,0.1
N=C(N)NCCC[C@@H]1NC(=O)[C@@H]2CSSC[C@H](NC(=O)[C@H](Cc3ccc4ccccc4c3)NC(=O)[C@H](CCCNC(=N)N)NC(=O)[C@H](Cc3ccc(O)cc3)NC(=O)[C@H]3CCCN3C(=O)CNC1=O)C(=O)N[C@@H](Cc1ccc(O)cc1)C(=O)N[C@@H](CCC(N)=O)C(=O)N[C@@H](CCCCN)C(=O)N1CCC[C@@H]1C(=O)N1CCC[C@H]1C(=O)N[C@@H](Cc1ccc(O)cc1)C(=O)N[C@@H](CCCNC(=N)N)C(=O)N[C@@H](CCCNC(N)=O)C(=O)N2 [Ex. 54] (cyclo(YR[Cit]CRG[dP]YR[2Nal]CYQK[dP]P); disulfide 4-11),–,–,54000,6.9,0
N=C(N)NCCC[C@@H]1NC(=O)[C@@H]2CSSC[C@H](NC(=O)[C@H](Cc3ccc(O)cc3)NC(=O)[C@H](CCCNC(=N)N)NC(=O)[C@H](CCCNC(=N)N)NC(=O)[C@H]3CCCN3C(=O)CNC1=O)C(=O)N[C@@H](Cc1ccc(O)cc1)C(=O)N[C@@H](CCC(N)=O)C(=O)N[C@@H](CCCCN)C(=O)N1CCC[C@@H]1C(=O)N1CCC[C@H]1C(=O)N[C@@H](Cc1ccc(O)cc1)C(=O)N[C@@H](CCCNC(=N)N)C(=O)N[C@@H](Cc1ccc(O)cc1)C(=O)N2 [Ex. 148] (cyclo(YRYCRG[dP]RRYCYQK[dP]P); disulfide 4-11),–,–,46000,0.65,71
C[C@@H](O)[C@@H]1NC(=O)[C@H]2CCCN2C(=O)CNC(=O)[C@H](CCCNC(=N)N)NC(=O)[C@@H]2CSSC[C@H](NC(=O)[C@H](Cc3ccc4ccccc4c3)NC(=O)[C@H](CCCNC(=N)N)NC1=O)C(=O)N[C@@H](Cc1ccc(O)cc1)C(=O)N[C@@H](CCC(N)=O)C(=O)N[C@@H](CCCCN)C(=O)N1CCC[C@@H]1C(=O)N1CCC[C@H]1C(=O)N[C@@H](Cc1ccc(O)cc1)C(=O)N[C@@H](CCCNC(=N)N)C(=O)N[C@@H](CCCNC(N)=O)C(=O)N2 [Ex. 56] (cyclo(YR[Cit]CRG[dP]TR[2Nal]CYQK[dP]P); disulfide 4-11),–,–,60000,0.74,–
